Patent US20200078404A1, “COMBINATION OF A CELL THERAPY AND AN IMMUNOMODULATORY COMPOUND” (Juno Therapeutics, Inc., priority 2017, published 2020)

Assays:
K562-CD19 cells = settings: 1-5000 nM lenalidomide, E:T 2.5:1, about 120 hours
anti-BCMA CAR+ T cells = experiment: 3-D reconstructed bone marrow (rBone) myeloma model with RPMI-8226; assay type: cell-based, human; settings: 1.0 μM lenalidomide
Source text: To assess cell function in the context of a three-dimensional (3-D) human BCMA-expressing tissue microenvironment, a reconstructed bone marrow (rBone™) (z[…], San Jose, Calif.) was embedded with BCMA-expressing RPMI-8226.
After 2 or 7 days, cells were isolated and assessed by flow cytometry for surface expression of CD3, CD25, CD4, and CD8.

anti-CD19 CAR T cells = experiment: Proliferation of anti-CD19 CAR T cells under sub-optimal anti-CD3 stimulation (CTV dilution); assay type: cell-based, human; settings: 5 μM lenalidomide, sub-optimal anti-CD3, 72 hours
Source text: The CAR contained an anti-CD19 scFv, an Ig-derived spacer, a human CD28-derived transmembrane domain, a human 4-1BB-derived intracellular signaling domain and a human CD3 zeta-derived signaling domain. The nucleic acid construct encoding the CAR also included a truncated EGFR (tEGFR) sequence for use as a transduction marker, separated from the CAR sequence by a self-cleaving T2A sequence.

[1] = test system: anti-CD19 CAR-expressing T cells; experiment: Serial stimulation with K562.CD19: surface markers; assay type: cell-based, human
Method: Every 3-4 days (start of each new round), the cells were counted.
Expression of select surface markers was assessed on cells at day 4 (i.e., 4 days after the first stimulation) and day 28 (i.e., 4 days after the seventh stimulation). Specifically, harvested cells were analyzed by flow cytometry for CD3, CD4, CD8 and the surrogate marker for CAR expression, and also for the following surface markers: CD69, CD107a, PD-1, CD25, CD62L, CCR7, CD45RO, CD27, and LAG3.

With `Nc1cccc2c1CN(C1CCC(=O)NC1=O)C2=O` (centres unmarked) [lenalidomide, 3-(4-amino-1-oxo-1,3-dihydro-2H-isoindol-2-yl)piperidine-2,6-dione] as the compound, how does the CAR-mediated cytolytic activity (K562-CD19 cells) read?
Its CAR-mediated cytolytic activity is “reduced CAR-mediated cytolytic activity”.

And the “CD25+ expression in CD4+ and CD8+ T cell populations” value (anti-BCMA CAR+ T cells)?
Its value is “increase in CD25+ expression”.

What about the “total number of CD3+ cells” value (anti-BCMA CAR+ T cells; day 7) of the same compound?
Its value is “increase in total number of CD3+ cells”.

What about the “proliferation of CAR+ T cells” value (anti-CD19 CAR T cells) of the same compound?
The value was “enhanced proliferation of the CAR+ T cells”.

And the “expression of CD28” value ([1]; CD4+ and CD8+ CAR-expressing T cells, day 28, three donors)?
The value was “decreased in a dose-dependent manner”.

And the PD-1 expression ([1]; both E:T ratios, day 4 and day 28)?
The PD-1 expression was “downregulated to some degree in all donors”.

And the “CD25 and LAG3 expression” value ([1]; day 4)?
Its value is “upregulated across all three donors”.

What about the CCR7 expression ([1]; day 28) of the same compound?
Its CCR7 expression is “generally decreased at day 28”.
